# Measured values reported in ChEMBL document CHEMBL1154899, “Synthesis and biological evaluation of caffeic acid 3,4-dihydroxyphenethyl ester” (J Nat Prod, 2010).
# Experiments:
# Assay type in all cases: functional
# [1] = tested on: SF-539; assay: Antiproliferative activity against human SF539 cells assessed as cell growth at 500 uM by SRB assay; conditions: read-out: Activity
# [2] = tested on: CCRF-CEM; assay: Antiproliferative activity against human CCRF-CEM cells assessed as cell growth at 0.5 uM by SRB assay; conditions: read-out: Activity
# [3] = tested on: UO-31; assay: Antiproliferative activity against human UO31 cells assessed as cell growth at 5 mM by SRB assay; conditions: read-out: Activity
# [4] = tested on: RXF 393; assay: Antiproliferative activity against human RXF393 cells by SRB assay
# [5] = tested on: HCC 2998; assay: Antiproliferative activity against human HCC2998 cells by SRB assay
# [6] = tested on: MDA-MB-231; assay: Antiproliferative activity against human MDA-MB-231 cells by SRB assay
# [7] = tested on: SR; assay: Antiproliferative activity against human SR cells assessed as cell growth at 5 uM by SRB assay; conditions: read-out: Activity
# [8] = tested on: BT-549; assay: Antiproliferative activity against human BT549 cells assessed as cell growth at 0.5 uM by SRB assay; conditions: read-out: Activity
# [9] = tested on: HOP-92; assay: Antiproliferative activity against human HOP92 cells assessed as cell growth at 500 uM by SRB assay; conditions: read-out: Activity
# [10] = tested on: KM12; assay: Antiproliferative activity against human KM12 cells assessed as cell growth at 5 uM by SRB assay; conditions: read-out: Activity
# [11] = tested on: SK-OV-3; assay: Antiproliferative activity against human SKOV3 cells assessed as cell growth at 0.5 uM by SRB assay; conditions: read-out: Activity
# [12] = tested on: HCC 2998; assay: Antiproliferative activity against human HCC2998 cells assessed as cell growth at 50 uM by SRB assay; conditions: read-out: Activity
# [13] = tested on: CCRF-CEM; assay: Antiproliferative activity against human CCRF-CEM cells by SRB assay
# [14] = tested on: SF-295; assay: Antiproliferative activity against human SF295 cells assessed as cell growth at 5 uM by SRB assay; conditions: read-out: Activity
# [15] = tested on: MCF7; assay: Antiproliferative activity against human MCF7 cells assessed as cell growth at 5 uM by SRB assay; conditions: read-out: Activity
# [16] = tested on: NCI-H23; assay: Antiproliferative activity against human NCI-H23 cells assessed as cell growth at 5 uM by SRB assay; conditions: read-out: Activity
# [17] = tested on: EKVX; assay: Antiproliferative activity against human EKVX cells assessed as cell growth at […] by SRB assay; conditions: read-out: Activity
# [18] = tested on: SF-295; assay: Antiproliferative activity against human SF295 cells assessed as cell growth at 50 uM by SRB assay; conditions: read-out: Activity
# [19] = tested on: SK-MEL-5; assay: Antiproliferative activity against human SK-MEL-5 cells assessed as cell growth at 50 uM by SRB assay; conditions: read-out: Activity
# [20] = tested on: KM12; assay: Antiproliferative activity against human KM12 cells assessed as cell growth at 0.5 uM by SRB assay; conditions: read-out: Activity
# [21] = tested on: A549; assay: Antiproliferative activity against human A549 cells assessed as cell growth at 5 uM by SRB assay; conditions: read-out: Activity
# [22] = tested on: CAKI-1; assay: Antiproliferative activity against human Caki1 cells assessed as cell growth at 50 uM by SRB assay; conditions: read-out: Activity
# [23] = tested on: UO-31; assay: Antiproliferative activity against human UO31 cells assessed as cell growth at 500 uM by SRB assay; conditions: read-out: Activity
# [24] = tested on: SF-539; assay: Antiproliferative activity against human SF539 cells assessed as cell growth at 5 uM by SRB assay; conditions: read-out: Activity
# [25] = tested on: SNB-19; assay: Antiproliferative activity against human SNB19 cells assessed as cell growth at 500 uM by SRB assay; conditions: read-out: Activity
# [26] = tested on: SF-295; assay: Antiproliferative activity against human SF295 cells assessed as cell growth at 500 uM by SRB assay; conditions: read-out: Activity
# [27] = tested on: HCC 2998; assay: Antiproliferative activity against human HCC2998 cells assessed as cell growth at 500 uM by SRB assay; conditions: read-out: Activity
# [28] = tested on: MOLT-4; assay: Antiproliferative activity against human MOLT4 cells assessed as cell growth at 5 uM by SRB assay; conditions: read-out: Activity
# [29] = tested on: NCI-H322M; assay: Antiproliferative activity against human NCI-H322M cells assessed as cell growth at 50 uM by SRB assay; conditions: read-out: Activity
# [30] = tested on: NCI-H23; assay: Antiproliferative activity against human NCI-H23 cells assessed as cell growth at 500 uM by SRB assay; conditions: read-out: Activity
# [31] = tested on: HL-60(TB); assay: Antiproliferative activity against human HL-60(TB) cells assessed as cell growth at 5 uM by SRB assay; conditions: read-out: Activity
# [32] = tested on: RXF 393; assay: Antiproliferative activity against human RXF393 cells assessed as cell growth at 500 uM by SRB assay; conditions: read-out: Activity
# [33] = tested on: OVCAR-4; assay: Antiproliferative activity against human OVCAR4 cells assessed as cell growth at 500 uM by SRB assay; conditions: read-out: Activity
# [34] = tested on: SR; assay: Antiproliferative activity against human SR cells assessed as cell growth at 0.5 uM by SRB assay; conditions: read-out: Activity
# [35] = tested on: HT-29; assay: Antiproliferative activity against human HT-29 cells by SRB assay
# [36] = tested on: SK-MEL-2; assay: Antiproliferative activity against human SK-MEL-2 cells assessed as cell growth at 5 uM by SRB assay; conditions: read-out: Activity
# [37] = tested on: SN12C; assay: Antiproliferative activity against human SN12C cells assessed as cell growth at 500 uM by SRB assay; conditions: read-out: Activity
# [38] = Antiproliferative activity against human Hs 578T cells assessed as cell growth at 5 uM by SRB assay; conditions: read-out: Activity
# [39] = tested on: IGROV-1; assay: Antiproliferative activity against human IGROV1 cells assessed as cell growth at 0.5 uM by SRB assay; conditions: read-out: Activity
# [40] = tested on: SNB-19; assay: Antiproliferative activity against human SNB19 cells by SRB assay
# [41] = tested on: MDA-MB-435; assay: Antiproliferative activity against human MDA-MB-435 cells assessed as cell growth at 500 uM by SRB assay; conditions: read-out: Activity
# [42] = tested on: SF-295; assay: Antiproliferative activity against human SF295 cells assessed as cell growth at 0.5 uM by SRB assay; conditions: read-out: Activity
# [43] = tested on: HOP-62; assay: Antiproliferative activity against human HOP62 cells by SRB assay
# [44] = read-out: LC50 (the source's name)
# [45] = read-out: pLC50 (the source's name) (converted)
structure (smiles),measurement,setting,value
O=C(/C=C/c1ccc(O)c(O)c1)OCCc1ccc(O)c(O)c1,growth at 500 µM,[1],55%
same,growth at 0.5 µM,[2],95%
same,growth at 5000 µM,[3],-14%
same,GI50,[4]; read-out: GI50,15.5 µM
same,CC50,[4]; [44],> 50 µM
same,TGI,[4]; read-out: TGI,> 50 µM
same,GI50,[4]; read-out: pGI50 (converted),15.5 µM
same,CC50,[4]; [45],> 50.1 µM
same,TGI,[4]; read-out: pTGI,> 50.1 µM
same,GI50,[5]; read-out: GI50,14.6 µM
same,CC50,[5]; [44],> 50 µM
same,TGI,[5]; read-out: TGI,> 50 µM
same,GI50,[5]; read-out: pGI50 (converted),14.5 µM
same,CC50,[5]; [45],> 50.1 µM
same,TGI,[5]; read-out: pTGI,> 50.1 µM
same,GI50,[6]; read-out: GI50,11.1 µM
same,CC50,[6]; [44],> 50 µM
same,TGI,[6]; read-out: TGI,> 50 µM
same,GI50,[6]; read-out: pGI50 (converted),10.5 µM
same,CC50,[6]; [45],> 50.1 µM
same,TGI,[6]; read-out: pTGI,> 50.1 µM
same,growth at 5 µM,[7],81%
same,growth at 0.5 µM,[8],94%
same,growth at 500 µM,[9],29%
same,growth at 5 µM,[10],95%
same,growth at 0.5 µM,[11],99%
same,growth at 50 µM,[12],98%
same,GI50,[13],0.75 µM
same,CC50,[13]; [44],> 50 µM
same,TGI,[13]; read-out: TGI,5.33 µM
same,CC50,[13]; [45],> 50.1 µM
same,TGI,[13]; read-out: pTGI (converted),5.37 µM
same,growth at 5 µM,[14],89%
same,growth at 5 µM,[15],108%
same,growth at 5 µM,[16],95%
same,growth,[17],19%
same,growth at 50 µM,[18],87%
same,growth at 50 µM,[19],102%
same,growth at 0.5 µM,[20],97%
same,growth at 5 µM,[21],97%
same,growth at 50 µM,[22],88%
same,growth at 500 µM,[23],23%
same,growth at 5 µM,[24],81%
same,growth at 500 µM,[25],79%
same,growth at 500 µM,[26],92%
same,growth at 500 µM,[27],80%
same,growth at 5 µM,[28],97%
same,growth at 50 µM,[29],97%
same,growth at 500 µM,[30],78%
same,growth at 5 µM,[31],85%
same,growth at 500 µM,[32],89%
same,growth at 500 µM,[33],58%
same,growth at 0.5 µM,[34],92%
same,GI50,[35]; read-out: GI50,28.5 µM
same,CC50,[35]; [44],> 50 µM
same,TGI,[35]; read-out: TGI,> 50 µM
same,GI50,[35]; read-out: pGI50 (converted),28.2 µM
same,CC50,[35]; [45],> 50.1 µM
same,TGI,[35]; read-out: pTGI,> 50.1 µM
same,growth at 5 µM,[36],95%
same,growth at 500 µM,[37],65%
same,growth at 5 µM,[38],80%
same,growth at 0.5 µM,[39],112%
same,GI50,[40]; read-out: GI50,15.5 µM
same,CC50,[40]; [44],> 50 µM
same,TGI,[40]; read-out: TGI,> 50 µM
same,GI50,[40]; read-out: pGI50 (converted),15.5 µM
same,CC50,[40]; [45],> 50.1 µM
same,TGI,[40]; read-out: pTGI,> 50.1 µM
same,growth at 500 µM,[41],48%
same,growth at 0.5 µM,[42],98%
same,GI50,[43]; read-out: GI50,29.1 µM
same,CC50,[43]; [44],> 50 µM
same,TGI,[43]; read-out: TGI,> 50 µM
same,GI50,[43]; read-out: pGI50 (converted),28.8 µM
same,CC50,[43]; [45],> 50.1 µM
same,TGI,[43]; read-out: pTGI,> 50.1 µM
